Among the data in PubChem BioAssay (NCI) are GI50 and TGI values, retold here.

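Five concentrations, 48 hours, 96-well plates. GI50 = concentration required for 50% inhibition of growth. TGI marks complete inhibition of growth.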 Where a SMILES comes first, the peptide text is derived from it. [ ]: non-standard residue; d: D form. The star is where a group is joined. ξ: configuration not given here. X6 = FC(F)(F)c1cc(NC(=S)*)cc(C(F)(F)F)c1; ξF = NC(Cc1ccccc1)C(=O)O

The first experiment concerns OVCAR-8 ovarian. Nature of the experiment: NCI tumour cell line growth inhibition, 48 h.
In the case of `NC(Cc1c[nH]c2c(O)cccc12)C(=O)O` (centres undefined), the GI50 was more than 100 µM and the TGI was more than 100 µM.
With `COc1cc(-c2nn(-c3ccc(NC(=O)c4ccc(Cl)c(C(F)(F)F)c4)cc3)cc2-c2ccncc2)ccc1Cl`, the GI50 was 5.43 µM and the TGI was more than 100 µM.
On the same counts, the results for `O=C(/C=C/C12c3ccccc3C(c3ccccc31)C1C(=O)NC(=O)C12)c1ccncc1` (centres undefined) are 2.41 µM and 8.2 µM.
`O=C1C(=O)N(c2ccc(Cl)cc2Cl)C(=O)C(=O)C1c1nc2ccccc2s1` displayed a TGI of more than 100 µM.
For the compound `O=CN/C=C/c1cc(O)ccc1O`, the TGI was 43 µM.
On to `COC(=O)[C@@H](NC(=O)CNC(=O)[C@H]1CCCN1C(=O)C(Cc1ccccc1)NC(=S)Nc1cc(C(F)(F)F)cc(C(F)(F)F)c1)C(C)C` (some centres undefined) (X6-[ξF][dP]GV-OMe), for which the GI50 is 3.75 µM and the TGI came to 53.6 µM.
`N#CC1C(C#N)C2(c3ccccc3)C(c3ccccc3)=NN(c3ccccc3)CC12` (centres undefined) returned a TGI of more than 100 µM.
Take `O=C1/C(=C/c2cccc([N+](=O)[O-])c2)COc2ccc(O)cc21`: the GI50 was 2.67 µM and the TGI was found to be 9.52 µM.
In the case of `NC(=O)c1sc(-n2cnc3ccccc32)cc1OCc1ccccc1Br`, the GI50 is 4.83 µM and the TGI is 23.5 µM.
As to `Clc1ccc2c(NCCCCNc3nc(N4CCCCC4)nc4ccccc34)ccnc2c1`, the GI50 is 2.82 µM and the TGI was found to be 10.4 µM.
The matching figures for `O=C1CC(c2ccc3c(c2)OCO3)Nc2ccccc21` (centres undefined): 14.4 µM and 63.3 µM.
Consider `O=C1C(Cl)=C(Nc2cccc(Cl)c2)C(=O)N1Cc1ccc(Cl)cc1Cl`, for which the GI50 is 0.0603 µM and the TGI was more than 36.1 µM.

A further experiment deals with CCRF-CEM leukemia. Put plainly: NCI tumour cell line growth inhibition, 48 h.
Consider `NC(Cc1c[nH]c2c(O)cccc12)C(=O)O` (centres undefined), for which the GI50 was more than 100000 nM and the TGI was more than 100 µM.
On the same counts, the results for `COc1cc(-c2nn(-c3ccc(NC(=O)c4ccc(Cl)c(C(F)(F)F)c4)cc3)cc2-c2ccncc2)ccc1Cl` are 2500 nM and more than 100 µM.
The matching figures for `O=C(/C=C/C12c3ccccc3C(c3ccccc31)C1C(=O)NC(=O)C12)c1ccncc1` (centres undefined): 2390 nM and 8.87 µM.
`O=C1C(=O)N(c2ccc(Cl)cc2Cl)C(=O)C(=O)C1c1nc2ccccc2s1` showed a TGI of 88.9 µM.
The compound `O=CN/C=C/c1cc(O)ccc1O` registered a TGI of 23.9 µM.
For the compound `COC(=O)[C@@H](NC(=O)CNC(=O)[C@H]1CCCN1C(=O)C(Cc1ccccc1)NC(=S)Nc1cc(C(F)(F)F)cc(C(F)(F)F)c1)C(C)C` (some centres undefined) (X6-[ξF][dP]GV-OMe), the GI50 was 3170 nM and the TGI is 35.1 µM.
The compound `N#CC1C(C#N)C2(c3ccccc3)C(c3ccccc3)=NN(c3ccccc3)CC12` (centres undefined) registered a TGI of more than 100 µM.
As for `O=C1/C(=C/c2cccc([N+](=O)[O-])c2)COc2ccc(O)cc21`, the GI50 was 408 nM and the TGI was found to be 1.85 µM.
The matching figures for `NC(=O)c1sc(-n2cnc3ccccc32)cc1OCc1ccccc1Br`: 1340 nM and more than 25 µM.
The matching figures for `Clc1ccc2c(NCCCCNc3nc(N4CCCCC4)nc4ccccc34)ccnc2c1`: 1660 nM and 5.23 µM.
Take `O=C1CC(c2ccc3c(c2)OCO3)Nc2ccccc21` (centres undefined): the GI50 was 3850 nM and the TGI was more than 100 µM.
With `O=C1C(Cl)=C(Nc2cccc(Cl)c2)C(=O)N1Cc1ccc(Cl)cc1Cl`, the GI50 is 4380 nM and the TGI was more than 100 µM.

The test system of another experiment is HCT-116 colon. Put plainly: NCI tumour cell line growth inhibition, 48 h.
With `NC(Cc1c[nH]c2c(O)cccc12)C(=O)O` (centres undefined), the GI50 was more than 100000 nM and the TGI was more than 100 µM.
`COc1cc(-c2nn(-c3ccc(NC(=O)c4ccc(Cl)c(C(F)(F)F)c4)cc3)cc2-c2ccncc2)ccc1Cl`: the GI50 was 2810 nM and the TGI was more than 58.2 µM.
On the same counts, the results for `O=C(/C=C/C12c3ccccc3C(c3ccccc31)C1C(=O)NC(=O)C12)c1ccncc1` (centres undefined) are 1580 nM and 4.31 µM.
On to `O=C1C(=O)N(c2ccc(Cl)cc2Cl)C(=O)C(=O)C1c1nc2ccccc2s1`, for which the TGI was more than 100 µM.
With `O=CN/C=C/c1cc(O)ccc1O`, the TGI stood at 29.2 µM.
On to `COC(=O)[C@@H](NC(=O)CNC(=O)[C@H]1CCCN1C(=O)C(Cc1ccccc1)NC(=S)Nc1cc(C(F)(F)F)cc(C(F)(F)F)c1)C(C)C` (some centres undefined) (X6-[ξF][dP]GV-OMe), for which the GI50 was 3340 nM and the TGI is 10.7 µM.
Compound `N#CC1C(C#N)C2(c3ccccc3)C(c3ccccc3)=NN(c3ccccc3)CC12` (centres undefined) yielded a TGI of more than 100 µM.
With `O=C1/C(=C/c2cccc([N+](=O)[O-])c2)COc2ccc(O)cc21`, the GI50 was 1190 nM and the TGI was determined as 2.82 µM.
As for `NC(=O)c1sc(-n2cnc3ccccc32)cc1OCc1ccccc1Br`, the GI50 is 2610 nM and the TGI is more than 25 µM.
The matching figures for `Clc1ccc2c(NCCCCNc3nc(N4CCCCC4)nc4ccccc34)ccnc2c1`: 1200 nM and 3.06 µM.
On the same counts, the results for `O=C1CC(c2ccc3c(c2)OCO3)Nc2ccccc21` (centres undefined) are 10200 nM and 23.9 µM.
As to `O=C1C(Cl)=C(Nc2cccc(Cl)c2)C(=O)N1Cc1ccc(Cl)cc1Cl`, the GI50 is 685 nM and the TGI came to 7.57 µM.

For the next experiment, the system named is OVCAR-5 ovarian. Nature of the experiment: NCI tumour cell line growth inhibition, 48 h.
Regarding `NC(Cc1c[nH]c2c(O)cccc12)C(=O)O` (centres undefined), the GI50 was more than 100 µM and the TGI is more than 100 µM.
As to `COc1cc(-c2nn(-c3ccc(NC(=O)c4ccc(Cl)c(C(F)(F)F)c4)cc3)cc2-c2ccncc2)ccc1Cl`, the GI50 is 4.58 µM and the TGI is more than 39.6 µM.
As to `O=C(/C=C/C12c3ccccc3C(c3ccccc31)C1C(=O)NC(=O)C12)c1ccncc1` (centres undefined), the GI50 was 3.11 µM and the TGI stood at 13.5 µM.
`O=C1C(=O)N(c2ccc(Cl)cc2Cl)C(=O)C(=O)C1c1nc2ccccc2s1` yielded a TGI of more than 100 µM.
Same read-out and setting: as for `O=CN/C=C/c1cc(O)ccc1O`, the figure is more than 100 µM.
For `COC(=O)[C@@H](NC(=O)CNC(=O)[C@H]1CCCN1C(=O)C(Cc1ccccc1)NC(=S)Nc1cc(C(F)(F)F)cc(C(F)(F)F)c1)C(C)C` (some centres undefined) (X6-[ξF][dP]GV-OMe), the GI50 is 1.93 µM and the TGI was determined as 3.64 µM.
The compound `N#CC1C(C#N)C2(c3ccccc3)C(c3ccccc3)=NN(c3ccccc3)CC12` (centres undefined) came in with a TGI of more than 100 µM.
Consider `O=C1/C(=C/c2cccc([N+](=O)[O-])c2)COc2ccc(O)cc21`, for which the GI50 is 2.11 µM and the TGI was 4.76 µM.
In the case of `NC(=O)c1sc(-n2cnc3ccccc32)cc1OCc1ccccc1Br`, the GI50 was 4.94 µM and the TGI was more than 25 µM.
The matching figures for `Clc1ccc2c(NCCCCNc3nc(N4CCCCC4)nc4ccccc34)ccnc2c1`: 2.17 µM and 9.23 µM.
For the compound `O=C1CC(c2ccc3c(c2)OCO3)Nc2ccccc21` (centres undefined), the GI50 was 11.1 µM and the TGI was more than 55.4 µM.
On the same counts, the results for `O=C1C(Cl)=C(Nc2cccc(Cl)c2)C(=O)N1Cc1ccc(Cl)cc1Cl` are 11.6 µM and 37.1 µM.

The next experiment concerns SR leukemia. Put plainly: NCI tumour cell line growth inhibition, 48 h.
As for `NC(Cc1c[nH]c2c(O)cccc12)C(=O)O` (centres undefined), the GI50 was more than 100000 nM and the TGI is more than 100 µM.
On the same counts, the results for `COc1cc(-c2nn(-c3ccc(NC(=O)c4ccc(Cl)c(C(F)(F)F)c4)cc3)cc2-c2ccncc2)ccc1Cl` are 3200 nM and more than 37.8 µM.
On the same counts, the results for `O=C(/C=C/C12c3ccccc3C(c3ccccc31)C1C(=O)NC(=O)C12)c1ccncc1` (centres undefined) are 1760 nM and 7.34 µM.
For `O=C1C(=O)N(c2ccc(Cl)cc2Cl)C(=O)C(=O)C1c1nc2ccccc2s1`, the TGI is 79.2 µM.
The same measure, in the same setting: as for `O=CN/C=C/c1cc(O)ccc1O`, the figure is 48.2 µM.
For `COC(=O)[C@@H](NC(=O)CNC(=O)[C@H]1CCCN1C(=O)C(Cc1ccccc1)NC(=S)Nc1cc(C(F)(F)F)cc(C(F)(F)F)c1)C(C)C` (some centres undefined) (X6-[ξF][dP]GV-OMe), the GI50 was 2570 nM and the TGI was found to be 8.58 µM.
As for `N#CC1C(C#N)C2(c3ccccc3)C(c3ccccc3)=NN(c3ccccc3)CC12` (centres undefined), the TGI was more than 100 µM.
Regarding `O=C1/C(=C/c2cccc([N+](=O)[O-])c2)COc2ccc(O)cc21`, the GI50 was 278 nM and the TGI came to 1.18 µM.
On the same counts, the results for `NC(=O)c1sc(-n2cnc3ccccc32)cc1OCc1ccccc1Br` are 3090 nM and more than 25 µM.
On the same counts, the results for `Clc1ccc2c(NCCCCNc3nc(N4CCCCC4)nc4ccccc34)ccnc2c1` are 408 nM and 2.88 µM.
On the same counts, the results for `O=C1CC(c2ccc3c(c2)OCO3)Nc2ccccc21` (centres undefined) are 4560 nM and more than 100 µM.
Compound `O=C1C(Cl)=C(Nc2cccc(Cl)c2)C(=O)N1Cc1ccc(Cl)cc1Cl` registered a TGI of 8.9 µM.
